Data reported in patent publication US5342980A, “Fungicidal agents” (American Cyanamid Company, priority 1992, dated 1994).

What was measured:
[1] = test system: Venturia inaequalis; test: In vivo fungicidal evaluation, Apple Scab (AS); details: 200 ppm, plants sprayed before inoculation
[2] = test system: Plasmopara viticola; test: In vivo fungicidal evaluation, Grape Downy Mildew (GDM); details: 200 ppm, plants sprayed before inoculation
[3] = test system: Botrytis cinerea; test: In vivo fungicidal evaluation, Pepper Botrytis (PB); details: 200 ppm, plants sprayed before inoculation
[4] = test system: Pyricularia oryzae; type: in vivo; details: 200 ppm, plants sprayed before inoculation
[5] = test system: Cercospora beticola; test: In vivo fungicidal evaluation, Sugar Beet Cercospora (SBC); details: plants sprayed before inoculation
[6] = test system: Alternaria solani; test: In vivo fungicidal evaluation, Tomato Early Blight (TEB); details: 200 ppm, plants sprayed before inoculation
[7] = test system: Puccinia recondita f. sp. tritici; test: In vivo fungicidal evaluation, Wheat Leaf Rust (WLR); details: 200 ppm, plants sprayed before inoculation
[8] = test system: Erysiphe graminis f. sp. tritici; test: In vivo fungicidal evaluation, Wheat Powdery Mildew (WPM); details: 200 ppm, plants sprayed before inoculation
[9] = test system: Rhizoctonia solani; test: In vivo fungicidal evaluation, Rice Sheath Blight (RSB); details: 400 ppm, plants sprayed before inoculation
[10] = test system: Fusarium oxysporum f. sp. cucumerinum; test: In vitro fungicidal evaluation, growth inhibition (FUSOXC); type: cell-based; set-up: scale not given here; details: 25 ppm, 3-4 days at 21° C.
Method: (§1) Test compounds are dissolved in acetone and dispersed into cell well plates containing a suspension of ground fungal mycelia in a nutrient broth. Assay plates are incubated for 3-4 days at 21° C. Growth inhibition is measured visually and is rated using the following scale:
(§2) Untreated controls, solvent blanks and reference standards are included in each test.
(§3) Assay fungi include the plant pathogens, Pythium ultimum (Pythul); Rhizoctonia solani (Rhizso); Fusarium oxysporum f. sp. cucumerinum (Fusoxc); and Pseudocercosporella herpotrichoides (Psdche).
(§4) When more than one test is run, the data are averaged.

[11] = test system: Pseudocercosporella herpotrichoides; test: In vitro fungicidal evaluation, growth inhibition (PSDCHE); type: cell-based; set-up: scale not given here; details: 25 ppm, 3-4 days at 21° C.
Method: as §1, §2, §3, §4

[12] = test system: Pythium ultimum; test: In vitro fungicidal evaluation, growth inhibition (PYTHUL); type: cell-based; set-up: scale not given here; details: 25 ppm, 3-4 days at 21° C.
Method: as §1, §2, §3, §4

[13] = test system: Rhizoctonia solani; test: In vitro fungicidal evaluation, growth inhibition (RHIZSO); type: cell-based; set-up: scale not given here; details: 25 ppm, 3-4 days at 21° C.
Method: as §1, §2, §3, §4

[14] = test system: Fusarium oxysporium f. sp. cucumerinum; test: Control of soil borne diseases, Cucumber Fusarium Wilt (CUFO); type: in vivo; details: 14-18 days after treatment; note: ranges in brackets are in %
Method: (§5) Pasturized soil (100 mL) is added to 6 cm diameter plastic cups without drainage holes and covered with pathogen contaminated soil (30 mL). Ten germinated cucumber seeds are planted on the contaminated soil and the seeds are covered with pasteurized soil (20 mL). Test compounds are dissolved in acetone, diluted with deionized water containing about 0.05% TWEEN 20®, and applied to the pots by drenching the soil surface with 15 mL of test solution. The pots are placed in a greenhouse for disease development. The pots are watered lightly until plants emerge from the soil surface. Disease evaluations are made 14-18 days after treatment according to the rating scale shown below.

[15] = test system: Pythium aphanidermantum; test: Control of soil borne diseases, Cucumber damping-off by Pythium (CUPA); type: in vivo; details: 14-18 days after treatment; note: ranges in brackets are in %
Method: as §5

[16] = test system: Rhizoctonia solani; test: Control of soil borne diseases, Cucumber damping-off by Rhizoctonia (CURS); type: in vivo; details: 14-18 days after treatment; note: ranges in brackets are in %
Method: as §5

[17] = test system: Mycosphaerella fijiensis; test: Control of banana black sigatoka on banana seedlings; type: in vivo; details: 200 ppm, leaves sprayed to run-off; 28 to 40 days post inoculation
Method: Test compounds are dissolved in acetone and diluted with distilled water containing about 0.05% TWEEN 20® to give a concentration of 200 ppm. Banana seedlings at the 6-7 leaf stage are sprayed with test solution on the upper and lower surfaces of the 3 youngest, unfurled leaves to the point of run-off, dried and inoculated with a spore suspension of Mycosphaerella fijiensis. The inoculated banana seedlings are placed outdoors in a plastic tunnel lined with wet jute sacks. The temperature is maintained between about 25° and 32° C. and the relative humidity is maintained between about 85% and 100%. After five days, the banana seedlings are transferred to a partially shaded screenhouse, surrounded with wet jute sacks and misted daily. When disease symptom development is optimal, typically 28 to 40 days post inoculation, the banana seedlings are rated for disease control according to the rating scale shown below. Each test contains inoculated treated plants, inoculated untreated plants and a reference standard. When more than one test is run, the data are averaged.

Row | SMILES | disease control rating, AS [1] | disease control rating, GDM [2] | disease control rating, PB [3] | disease control rating, RB [4] | disease control rating, SBC ([5]; 200 ppm) | disease control rating, TEB [6] | disease control rating, WLR [7] | disease control rating, WPM [8] | disease control rating, RSB [9] | growth inhibition rating, FUSOXC [10] | growth inhibition rating, PSDCHE [11] | growth inhibition rating, PYTHUL [12] | growth inhibition rating, RHIZSO [13] | disease control rating, SBC ([5]; 400 ppm) | disease control rating, CUFO ([14]; 2.5 kg/ha soil drench) | disease control rating, CUFO ([14]; 5.0 kg/ha soil drench) | disease control rating, CUFO ([14]; 10.0 kg/ha soil drench) | disease control rating, CUPA ([15]; 2.5 kg/ha soil drench) | disease control rating, CUPA ([15]; 5.0 kg/ha soil drench) | disease control rating, CUPA ([15]; 10.0 kg/ha soil drench) | other results
1 | CN(O)C(=S)C(=O)C(C)(C)C.CN(O)C(=S)C(=O)C(C)(C)C.[Mn+2] [N,3,3-trimethyl-2-oxo-1-thiobutyrohydroxamic acid manganese(+2) chelate] | 8.5 | 5.5 | 8.5 | 3.0 | 7.5 | 8.5 | 6.5 | 7.0 | 0.0 | 0.0 | 7.0 | 6.0 | 4.5 |  |  |  |  |  |  |  | 
2 | CN([O-])C(=S)C(=O)C(C)(C)C.CN([O-])C(=S)C(=O)C(C)(C)C.CN([O-])C(=S)C(=O)C(C)(C)C.[Fe+3] [N,3,3-trimethyl-2-oxo-1-thiobutyrohydroxamic acid iron(+3) chelate] | 9.0 | 8.5 | 6.0 | 0.0 | 8.2 | 9.0 | 6.5 | 5.5 | 3.3 | 1.3 | 2.5 | 8.0 | 4.5 | 6.8 | 1 (5-10) | 2 (15-25) | 3 (30-40) | 0 (0) | 1 (5-10) | 2 (15-25) | disease control rating, CURS ([16]; 2.5 kg/ha soil drench): 4 (45-55); disease control rating, CURS ([16]; 5.0 kg/ha soil drench): 6 (75-85); disease control rating, CURS ([16]; 10.0 kg/ha soil drench): 9 (100)
3 | CC(C)(C)C(=O)C(=S)N([O-])C1CCCC1.CC(C)(C)C(=O)C(=S)N([O-])C1CCCC1.CC(C)(C)C(=O)C(=S)N([O-])C1CCCC1.[Fe+3] [N-cyclopentyl-3,3-dimethyl-2-oxo-1-thiobutyrohydroxamicacid iron(+3) chelate] | 0.0 | 0.0 | 0.0 | 0.0 | 0.8 | 0.0 |  | 0.0 |  | 0.0 | 0.0 | 0.0 | 0.0 | 1.8 |  |  |  |  |  |  | 
4 | CN(O)C(=S)C(=O)C(C)(C)C [N,3,3-trimethyl-2-oxo-1-thiobutyrohydroxamic acid] | 5.0 | 4.3 | 3.0 | 2.7 | 7.0 | 2.7 | 1.7 | 6.3 | 0.3 | 0.0 | 1.0 | 6.0 | 6.0 | 3.5 | 1 (5-10) | 0 (0) | 1 (5-10) | 2 (15-25) | 2 (15-25) | 3 (30-40) | Control of Banana Black Sigatoka (rating) [17]: 3.7; disease control rating, CURS ([16]; 2.5 kg/ha soil drench): 2 (15-25); disease control rating, CURS ([16]; 5.0 kg/ha soil drench): 5 (60-70); disease control rating, CURS ([16]; 10.0 kg/ha soil drench): 7 (90)
5 | CN([O-])C(=S)C(=O)C12CC3CC(CC(C3)C1)C2.CN([O-])C(=S)C(=O)C12CC3CC(CC(C3)C1)C2.[Cu+2] [N-methyl-alpha-thio-1-adamantaneglyoxylohydroxamic acid copper(+2) chelate] | 0.0 | 0.0 | 0.0 | 0.0 | 0.5 | 0.0 |  | 0.0 |  | 0.0 | 0.0 | 0.0 | 0.0 | 1.8 |  |  |  |  |  |  | 
6 | CN([O-])C(=S)C(=O)C(C)(C)C.CN([O-])C(=S)C(=O)C(C)(C)C.[Zn+2] [N,3,3-trimethyl-2-oxo-1-thiobutyrohydroxamic acid zinc(+2) chelate] | 9.0 | 9.0 | 8.5 | 8.0 | 8.4 | 8.5 | 7.5 | 3.0 | 6.0 | 4.5 | 4.0 | 8.5 | 4.5 | 7.5 | 2 (15-25) | 1 (5-10) | 4 (45-55) | 0 (0) | 2 (15-25) | 4 (45-55) | disease control rating, CURS ([16]; 2.5 kg/ha soil drench): 4 (45-55); disease control rating, CURS ([16]; 5.0 kg/ha soil drench): 6 (75-85); disease control rating, CURS ([16]; 10.0 kg/ha soil drench): 9 (100)
7 | CC(C)(C)C(=O)C(=S)N([O-])Cc1ccccc1.CC(C)(C)C(=O)C(=S)N([O-])Cc1ccccc1.[Zn+2] [N-benzyl-3,3-dimethyl-2-oxo-1-thiobutyrohydroxamic acid zinc(+2) chelate] | 0.0 | 0.0 | 0.0 | 0.0 | 6.0 | 0.0 |  | 0.0 |  | 0.0 | 0.0 | 4.0 | 0.0 |  |  |  |  |  |  |  | 
